# In ChEMBL document CHEMBL4627299, “Computational discovery and biological evaluation of novel inhibitors targeting histone-lysine N-methyltransferase SET7” (Bioorg Med Chem, 2020):
# The source made the active and inactive calls. The rule behind the calls is not given here.
# Key:
# [1] = target: T1, Histone-lysine N-methyltransferase SETD7 (Homo sapiens) (UniProt Q8WTS6); assay: Inhibition of human SET7 overexpressed in Escherichia coli BL21 (DE3) cells at 50 uM preincubated for 15 mins followed by addition of SAM as substrate and biotinylated Histone H3 (1-50) peptide measured after 30 mins by AlphaLISA assay relative to control
# T1 sequence (whole entry): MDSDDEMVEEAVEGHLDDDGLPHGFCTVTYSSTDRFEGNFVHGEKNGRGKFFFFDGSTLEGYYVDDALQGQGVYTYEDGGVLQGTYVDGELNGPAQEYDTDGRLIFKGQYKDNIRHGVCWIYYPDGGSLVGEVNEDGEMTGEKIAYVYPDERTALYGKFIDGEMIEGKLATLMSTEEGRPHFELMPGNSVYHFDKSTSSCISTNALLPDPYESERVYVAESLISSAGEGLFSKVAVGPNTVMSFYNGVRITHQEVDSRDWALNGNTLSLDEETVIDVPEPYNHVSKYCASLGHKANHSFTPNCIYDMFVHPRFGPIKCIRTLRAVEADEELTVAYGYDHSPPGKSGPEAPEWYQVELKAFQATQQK
# [2] = target: T1, Histone-lysine N-methyltransferase SETD7 (Homo sapiens); assay: Inhibition of human SET7 overexpressed in Escherichia coli BL21 (DE3) cells at 25 uM preincubated for 15 mins followed by addition of SAM as substrate and biotinylated Histone H3 (1-50) peptide measured after 30 mins by AlphaLISA assay relative to control
# [3] = target: T1, Histone-lysine N-methyltransferase SETD7 (Homo sapiens); assay: Inhibition of human SET7 overexpressed in Escherichia coli BL21 (DE3) cells at 12.5 uM preincubated for 15 mins followed by addition of SAM as substrate and biotinylated Histone H3 (1-50) peptide measured after 30 mins by AlphaLISA assay relative to control
# [4] = target: T2, Histone-lysine N-methyltransferase SETD7 (Homo sapiens, UniProt Q8WTS6); assay: Inhibition of human SET7 overexpressed in Escherichia coli BL21 (DE3) cells preincubated for 15 mins followed by addition of SAM as substrate and biotinylated Histone H3 (1-50) peptide measured after 30 mins by AlphaLISA assay relative to control
# T2 sequence (Q8WTS6 whole entry): T1 sequence (whole entry)
# [5] = target: T3, Histone-lysine N-methyltransferase EZH1 (Homo sapiens, UniProt Q92800); assay: Inhibition of Ezh1 (unknown origin) preincubated for 15 mins followed by addition of substrate measured after 1 hr by AlphaLISA assay
# T3 sequence (Q92800 whole entry): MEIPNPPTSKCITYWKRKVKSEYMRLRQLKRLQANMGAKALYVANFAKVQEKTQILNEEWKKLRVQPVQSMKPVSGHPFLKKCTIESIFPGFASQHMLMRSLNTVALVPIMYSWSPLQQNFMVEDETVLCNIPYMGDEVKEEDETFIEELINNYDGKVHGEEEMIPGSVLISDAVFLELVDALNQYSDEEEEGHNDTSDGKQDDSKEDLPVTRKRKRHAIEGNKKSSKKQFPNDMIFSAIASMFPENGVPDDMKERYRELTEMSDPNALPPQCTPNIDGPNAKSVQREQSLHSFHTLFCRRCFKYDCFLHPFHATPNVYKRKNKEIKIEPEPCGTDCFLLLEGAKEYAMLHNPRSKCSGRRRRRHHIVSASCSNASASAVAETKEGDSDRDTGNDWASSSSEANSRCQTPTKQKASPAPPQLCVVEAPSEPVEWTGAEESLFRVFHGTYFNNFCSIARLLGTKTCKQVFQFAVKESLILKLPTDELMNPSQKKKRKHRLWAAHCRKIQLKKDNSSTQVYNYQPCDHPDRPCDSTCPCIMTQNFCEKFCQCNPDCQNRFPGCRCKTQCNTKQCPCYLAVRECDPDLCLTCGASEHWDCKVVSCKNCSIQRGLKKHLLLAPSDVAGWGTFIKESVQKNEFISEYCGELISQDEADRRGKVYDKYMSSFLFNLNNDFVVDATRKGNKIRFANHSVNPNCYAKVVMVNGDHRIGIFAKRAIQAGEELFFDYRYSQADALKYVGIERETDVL
# [6] = target: T4, Histone-lysine N-methyltransferase SMYD3 (Homo sapiens, UniProt Q9H7B4); assay: Inhibition of SMYD3 (unknown origin) preincubated for 15 mins followed by addition of [3H]-SAM as substrate and peptide solution after 240 mins cold SAM was added measured after 1 hr by radioisotope assay
# T4 sequence (Q9H7B4 whole entry): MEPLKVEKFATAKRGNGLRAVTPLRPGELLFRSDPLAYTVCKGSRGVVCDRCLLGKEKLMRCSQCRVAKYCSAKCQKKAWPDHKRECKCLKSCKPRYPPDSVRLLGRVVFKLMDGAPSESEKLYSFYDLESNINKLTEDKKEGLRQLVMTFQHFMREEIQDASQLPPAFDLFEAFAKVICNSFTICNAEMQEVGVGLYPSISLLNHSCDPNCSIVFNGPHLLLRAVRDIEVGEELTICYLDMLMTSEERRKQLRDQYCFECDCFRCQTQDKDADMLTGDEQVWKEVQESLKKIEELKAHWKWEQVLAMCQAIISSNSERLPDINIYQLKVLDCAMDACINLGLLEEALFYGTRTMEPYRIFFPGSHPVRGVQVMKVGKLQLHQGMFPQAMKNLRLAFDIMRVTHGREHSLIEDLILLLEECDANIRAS
# [7] = target: Histone-lysine N-methyltransferase 2A (Homo sapiens, UniProt Q03164); assay: Inhibition of MLL1 (unknown origin) preincubated for 15 mins followed by addition of substrate measured after 1 hr by AlphaLISA assay
# Histone-lysine N-methyltransferase 2A, sequence (Q03164 1-2718 limits assumed): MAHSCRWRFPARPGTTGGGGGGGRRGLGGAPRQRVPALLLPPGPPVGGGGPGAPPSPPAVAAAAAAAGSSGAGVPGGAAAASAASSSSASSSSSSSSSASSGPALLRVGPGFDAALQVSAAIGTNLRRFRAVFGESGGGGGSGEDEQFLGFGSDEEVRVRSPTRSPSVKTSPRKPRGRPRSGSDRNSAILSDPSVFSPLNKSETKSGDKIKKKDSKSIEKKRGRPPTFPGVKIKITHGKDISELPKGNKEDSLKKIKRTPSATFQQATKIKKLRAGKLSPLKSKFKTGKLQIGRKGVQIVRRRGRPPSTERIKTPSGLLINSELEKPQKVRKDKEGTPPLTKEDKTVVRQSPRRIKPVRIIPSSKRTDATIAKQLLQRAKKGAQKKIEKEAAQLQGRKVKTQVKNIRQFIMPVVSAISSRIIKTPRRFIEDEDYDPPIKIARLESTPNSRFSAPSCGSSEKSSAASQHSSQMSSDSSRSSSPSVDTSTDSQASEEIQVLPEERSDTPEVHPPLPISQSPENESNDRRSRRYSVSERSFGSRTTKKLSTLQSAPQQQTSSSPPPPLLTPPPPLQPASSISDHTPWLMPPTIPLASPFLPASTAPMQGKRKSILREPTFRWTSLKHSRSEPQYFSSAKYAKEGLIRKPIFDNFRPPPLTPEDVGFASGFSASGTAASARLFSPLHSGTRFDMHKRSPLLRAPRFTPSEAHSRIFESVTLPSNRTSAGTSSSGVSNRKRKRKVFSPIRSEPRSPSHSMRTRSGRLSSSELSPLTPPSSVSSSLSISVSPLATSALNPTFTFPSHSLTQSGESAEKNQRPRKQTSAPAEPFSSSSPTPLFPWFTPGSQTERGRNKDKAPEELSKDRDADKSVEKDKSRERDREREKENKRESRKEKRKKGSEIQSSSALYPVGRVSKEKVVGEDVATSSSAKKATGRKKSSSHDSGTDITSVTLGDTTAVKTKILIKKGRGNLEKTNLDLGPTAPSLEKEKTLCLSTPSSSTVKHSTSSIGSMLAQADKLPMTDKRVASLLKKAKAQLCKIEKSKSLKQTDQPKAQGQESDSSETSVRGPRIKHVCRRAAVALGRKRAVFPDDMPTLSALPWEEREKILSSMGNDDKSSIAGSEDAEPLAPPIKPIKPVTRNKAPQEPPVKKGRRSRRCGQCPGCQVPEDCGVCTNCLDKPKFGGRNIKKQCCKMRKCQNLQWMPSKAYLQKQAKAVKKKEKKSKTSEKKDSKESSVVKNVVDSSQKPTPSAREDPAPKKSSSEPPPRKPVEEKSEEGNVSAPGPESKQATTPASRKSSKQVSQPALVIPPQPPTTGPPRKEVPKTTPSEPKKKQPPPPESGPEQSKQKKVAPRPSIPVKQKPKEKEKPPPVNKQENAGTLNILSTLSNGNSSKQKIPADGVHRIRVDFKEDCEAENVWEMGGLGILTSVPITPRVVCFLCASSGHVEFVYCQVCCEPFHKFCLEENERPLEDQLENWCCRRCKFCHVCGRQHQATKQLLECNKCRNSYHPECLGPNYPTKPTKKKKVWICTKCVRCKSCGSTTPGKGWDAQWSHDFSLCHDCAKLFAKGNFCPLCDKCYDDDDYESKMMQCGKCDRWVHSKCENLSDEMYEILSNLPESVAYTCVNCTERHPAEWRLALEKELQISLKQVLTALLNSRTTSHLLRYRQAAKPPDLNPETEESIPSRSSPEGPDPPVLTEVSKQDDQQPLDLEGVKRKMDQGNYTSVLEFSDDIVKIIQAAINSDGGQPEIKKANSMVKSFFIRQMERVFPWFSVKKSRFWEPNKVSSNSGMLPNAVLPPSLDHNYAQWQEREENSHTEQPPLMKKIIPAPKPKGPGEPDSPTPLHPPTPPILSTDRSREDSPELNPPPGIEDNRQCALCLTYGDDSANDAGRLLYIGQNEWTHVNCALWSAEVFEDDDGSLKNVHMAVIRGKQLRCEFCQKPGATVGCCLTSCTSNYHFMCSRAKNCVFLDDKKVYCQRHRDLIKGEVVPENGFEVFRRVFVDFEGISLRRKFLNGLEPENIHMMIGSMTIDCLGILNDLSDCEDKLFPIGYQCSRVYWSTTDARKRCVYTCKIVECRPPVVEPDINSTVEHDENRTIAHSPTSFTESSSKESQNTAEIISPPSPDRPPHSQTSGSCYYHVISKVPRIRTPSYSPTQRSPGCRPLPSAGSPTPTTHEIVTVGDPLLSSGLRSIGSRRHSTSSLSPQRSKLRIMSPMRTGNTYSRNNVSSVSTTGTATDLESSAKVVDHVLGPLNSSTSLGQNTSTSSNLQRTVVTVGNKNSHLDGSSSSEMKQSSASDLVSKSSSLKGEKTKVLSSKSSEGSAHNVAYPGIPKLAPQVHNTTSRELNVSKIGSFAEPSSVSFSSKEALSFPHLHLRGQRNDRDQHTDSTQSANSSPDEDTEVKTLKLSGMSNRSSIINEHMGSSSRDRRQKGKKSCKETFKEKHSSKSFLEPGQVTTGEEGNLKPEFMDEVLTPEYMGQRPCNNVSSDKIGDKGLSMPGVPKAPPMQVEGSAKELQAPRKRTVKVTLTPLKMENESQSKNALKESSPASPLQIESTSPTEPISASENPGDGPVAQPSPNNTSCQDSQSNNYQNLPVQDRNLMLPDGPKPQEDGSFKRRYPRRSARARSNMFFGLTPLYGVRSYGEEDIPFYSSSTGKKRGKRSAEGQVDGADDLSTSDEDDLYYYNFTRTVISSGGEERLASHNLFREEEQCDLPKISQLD
# Histone-lysine N-methyltransferase 2A, sequence (Q03164 2719-3969 limits assumed): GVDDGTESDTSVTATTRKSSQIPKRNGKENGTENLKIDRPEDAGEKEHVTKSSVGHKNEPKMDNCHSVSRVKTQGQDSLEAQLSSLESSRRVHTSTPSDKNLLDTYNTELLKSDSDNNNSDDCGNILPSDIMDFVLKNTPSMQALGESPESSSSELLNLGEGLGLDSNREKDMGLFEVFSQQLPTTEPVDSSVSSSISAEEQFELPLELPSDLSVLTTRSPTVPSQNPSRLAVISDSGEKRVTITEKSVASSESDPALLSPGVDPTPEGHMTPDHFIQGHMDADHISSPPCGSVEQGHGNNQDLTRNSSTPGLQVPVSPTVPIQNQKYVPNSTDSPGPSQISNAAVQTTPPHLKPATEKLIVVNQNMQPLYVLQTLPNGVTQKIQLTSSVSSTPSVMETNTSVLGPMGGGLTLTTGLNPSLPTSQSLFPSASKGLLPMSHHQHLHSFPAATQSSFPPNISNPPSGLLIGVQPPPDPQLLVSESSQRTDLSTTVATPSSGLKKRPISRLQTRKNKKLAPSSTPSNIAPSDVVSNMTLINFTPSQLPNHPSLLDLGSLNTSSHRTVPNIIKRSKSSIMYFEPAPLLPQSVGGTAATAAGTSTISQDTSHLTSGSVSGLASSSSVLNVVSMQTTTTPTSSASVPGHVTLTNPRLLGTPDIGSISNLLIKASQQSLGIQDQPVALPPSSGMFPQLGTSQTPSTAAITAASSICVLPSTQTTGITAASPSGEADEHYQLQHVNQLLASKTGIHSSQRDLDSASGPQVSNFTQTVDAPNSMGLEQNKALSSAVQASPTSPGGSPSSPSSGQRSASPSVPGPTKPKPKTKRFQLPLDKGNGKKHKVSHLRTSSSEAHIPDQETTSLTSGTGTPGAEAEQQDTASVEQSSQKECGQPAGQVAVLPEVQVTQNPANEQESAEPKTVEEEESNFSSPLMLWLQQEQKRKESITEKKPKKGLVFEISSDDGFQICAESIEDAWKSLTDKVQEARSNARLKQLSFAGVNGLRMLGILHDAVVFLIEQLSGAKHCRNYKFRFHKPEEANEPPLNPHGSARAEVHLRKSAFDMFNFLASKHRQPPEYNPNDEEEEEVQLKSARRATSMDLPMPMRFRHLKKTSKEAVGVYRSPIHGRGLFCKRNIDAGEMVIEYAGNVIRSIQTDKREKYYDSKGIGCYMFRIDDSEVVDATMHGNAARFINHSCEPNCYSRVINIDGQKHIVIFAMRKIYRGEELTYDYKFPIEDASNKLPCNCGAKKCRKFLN
# [8] = target: T5, Histone-lysine N-methyltransferase NSD2 (Homo sapiens, UniProt O96028); assay: Inhibition of NSD2 (unknown origin) preincubated for 15 mins followed by addition of [3H]-SAM as substrate and peptide solution after 240 mins cold SAM was added measured by radioisotope assay
# T5 sequence (O96028 whole entry): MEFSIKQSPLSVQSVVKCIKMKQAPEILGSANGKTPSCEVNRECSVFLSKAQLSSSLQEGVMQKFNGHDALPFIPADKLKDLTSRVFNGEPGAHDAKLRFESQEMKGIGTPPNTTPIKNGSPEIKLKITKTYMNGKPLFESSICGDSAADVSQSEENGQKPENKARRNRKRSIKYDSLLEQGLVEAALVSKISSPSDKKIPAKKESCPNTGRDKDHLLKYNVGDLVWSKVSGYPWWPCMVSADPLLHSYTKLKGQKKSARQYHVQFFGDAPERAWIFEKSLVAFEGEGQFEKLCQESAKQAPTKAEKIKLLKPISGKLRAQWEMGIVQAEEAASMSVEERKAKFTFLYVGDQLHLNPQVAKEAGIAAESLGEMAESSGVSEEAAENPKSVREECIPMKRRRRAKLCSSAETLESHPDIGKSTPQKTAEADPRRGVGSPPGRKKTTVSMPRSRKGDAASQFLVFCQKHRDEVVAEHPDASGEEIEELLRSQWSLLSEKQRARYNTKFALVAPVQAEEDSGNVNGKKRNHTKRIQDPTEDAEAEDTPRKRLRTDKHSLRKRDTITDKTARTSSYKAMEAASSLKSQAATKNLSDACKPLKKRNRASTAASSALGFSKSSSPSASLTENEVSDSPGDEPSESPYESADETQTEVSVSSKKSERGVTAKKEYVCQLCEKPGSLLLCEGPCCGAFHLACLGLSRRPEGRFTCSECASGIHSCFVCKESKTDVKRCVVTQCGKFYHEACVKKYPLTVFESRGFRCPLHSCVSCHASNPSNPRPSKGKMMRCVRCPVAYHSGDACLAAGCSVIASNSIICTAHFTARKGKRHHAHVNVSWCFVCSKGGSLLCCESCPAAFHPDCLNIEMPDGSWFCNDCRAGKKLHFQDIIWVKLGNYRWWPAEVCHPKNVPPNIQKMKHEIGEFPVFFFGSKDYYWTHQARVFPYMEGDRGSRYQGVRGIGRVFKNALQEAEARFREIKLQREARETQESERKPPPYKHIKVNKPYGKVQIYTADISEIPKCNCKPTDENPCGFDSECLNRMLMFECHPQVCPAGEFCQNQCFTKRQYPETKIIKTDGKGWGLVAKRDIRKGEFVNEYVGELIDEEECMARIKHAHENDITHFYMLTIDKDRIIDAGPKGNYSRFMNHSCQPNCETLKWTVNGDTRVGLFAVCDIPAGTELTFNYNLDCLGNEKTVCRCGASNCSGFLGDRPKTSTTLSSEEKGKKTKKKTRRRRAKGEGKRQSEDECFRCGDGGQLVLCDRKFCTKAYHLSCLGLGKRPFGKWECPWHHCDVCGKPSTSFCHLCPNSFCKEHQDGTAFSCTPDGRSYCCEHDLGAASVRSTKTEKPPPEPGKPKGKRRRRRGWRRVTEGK
# [9] = tested on: MDA-MB-231; assay: Antiproliferation activity against human MDA-MB-231 cells assessed as reduction in cell viability measured by Cell-titer-Glo assay; format: functional, cell-based
# [10] = tested on: A549; assay: Antiproliferation activity against human A549 cells assessed as reduction in cell viability measured by Cell-titer-Glo assay; format: functional, cell-based
# [11] = tested on: HeLa; assay: Antiproliferation activity against human HeLa cells assessed as reduction in cell viability measured by Cell-titer-Glo assay; format: functional, cell-based
# [12] = tested on: MCF7; assay: Antiproliferation activity against human MCF7 cells assessed as reduction in cell viability measured by Cell-titer-Glo assay; format: functional, cell-based
# [13] = tested on: MV4-11; assay: Antiproliferation activity against human MV4-11 cells assessed as reduction in cell viability measured by Cell-titer-Glo assay; format: functional, cell-based
# [14] = organism: Homo sapiens; assay: Antiproliferation activity against human UMCHOR1 cells assessed as reduction in cell viability measured by Cell-titer-Glo assay; format: functional, cell-based
Structure (SMILES),inhibition [1] [%],inhibition [2] [%],inhibition [3] [%],IC50 [4] [µM],also measured
COC(=O)[C@H](Cc1ccccc1)NC(=O)[C@@H](N)CC(=O)O,10,32,17,,
O=c1c(O)c(-c2ccc(O)cc2)oc2cc(O)cc(O)c12 [KAEMPFEROL],,,,> 200,
CC(C)C[C@H](NC(=O)[C@H](Cc1ccccc1)NC(=O)c1cnccn1)B(O)O,24,19,18,,
CCn1cc(C(=O)O)c(=O)c2cc(F)c(N3CCNC(C)C3)c(F)c21 (centres undefined),14,23,19,,
COc1ccc(-c2oc3cc(O)cc(O)c3c(=O)c2O)cc1 [KAEMPFERIDE],,,,> 200,
O=c1c(-c2ccc(O)cc2)coc2cc(O)ccc12,14,6,5,,
Cc1cnc(NC(=O)C2=C(O)c3ccccc3S(=O)(=O)N2C)s1,23,29,18,,
CCN1CCCC1CNC(=O)c1cc(S(=O)(=O)CC)c(N)cc1OC (centres undefined),3,14,14,,
O=c1c(O)c(-c2ccccc2)oc2cc(O)cc(O)c12 [GALANGIN],,,,> 200,
CC(C)=CCC1=C(O)C(=O)c2ccccc2C1=O,,4,3,,
COc1cc(O)c(CC=C(C)C)c(O)c1C(=O)/C=C/c1ccc(O)cc1,18,11,9,,
O=c1cc(-c2ccc(O)c(O)c2)oc2cc(O)cc(O)c12 [LUTEOLIN],,,,6.08,
O=C(Nc1c(Cl)cncc1Cl)c1ccc(OC(F)F)c(OCC2CC2)c1,23,19,27,,
N[C@@H](CC(=O)N1CCn2c(nnc2C(F)(F)F)C1)Cc1cc(F)c(F)cc1F,,6,,,
Cc1oncc1C(=O)Nc1ccc(C(F)(F)F)cc1,,4,,,
Cc1cc([N+](=O)[O-])ccc1NS(=O)(=O)c1cc(Cl)ccc1Cl,26,26,17,,
O=c1c(O)c(-c2ccc(O)cc2O)oc2cc(O)cc(O)c12 [MORIN],87,62,40,6.02,
O=C1C[C@@H](c2ccc(O)c(O)c2)Oc2cc(O)cc(O)c21 [ERIODICTYOL],,,,> 200,
C=CC(C)(C)c1cc(/C=C/C(=O)c2ccc(O)cc2)c(OC)cc1O,39,28,17,,
CC(C)=CC[C@@H](O)C1=CC(=O)c2c(O)ccc(O)c2C1=O [SHIKONIN],90,72,50,21.6,
O=c1cc(-c2ccc(O)cc2)oc2cc(O)c(O)c(O)c12 [SCUTELLAREIN],,,,1.96,IC50 [5]: 8.77 µM; IC50 [6]: 18.2 µM; IC50 [7]: 2.92 µM; IC50 [8]: 2.65 µM; Activity [9]: inactive; Activity [10]: inactive; Activity [11]: inactive; Activity [12]: inactive; IC50 [13]: 27.1 µM; Activity [14]: inactive
O=C(N/N=C/c1ccc([N+](=O)[O-])o1)c1ccc(O)cc1,7,18,8,,
COc1c(O)cc(O)c2c(=O)cc(-c3ccccc3)oc12,4,10,19,,
